Assay results: PubChem BioAssay AID179 (DTP/NCI, 2004)
Values joined by “and” are separate entries in the source; they are usually repeats but may differ in a detail not shown here. Identical values can stand only once. Active and inactive are the calls of the source.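 Rule for the calls: active = compounds giving half or more protection of infected cells from virus-caused growth loss, again on retest; inactive = the rest.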

Tested on: CEM cells HIV-1 protection, formazan growth assay
Test: NCI AIDS Antiviral Assay
Details: for IC50: measured here: growth of uninfected CEM cells
Summary of the method: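 Protection of CEM cells against HIV-1 was scored from cell growth (soluble formazan) across five concentrations, with parallel uninfected cells. Lack of protection may reflect toxicity.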

Nc1ccccc1[S][Sn]([c]1ccccc1)([c]1ccccc1)[c]1ccccc1
EC50: > 2 µM
IC50: 0.324 µM

COc1cc2oc(-c3ccc(O)cc3O)c(CC=C(C)C)c(=O)c2c(O)c1/C=C/C(C)C
EC50: > 200 µM
IC50: 4.79 µM

O=C(CCC(=O)c1ccc(Cl)cc1)NO
EC50: > 200 µM
IC50: 123 µM

C=C1CCCCCCCCC/C=C/1SCCCSC
EC50: > 200 µM
IC50: > 200 µM

O=[N+]([O-])c1ccc(N=Cc2ccc(Cl)cc2)cc1
EC50: > 200 µM
IC50: 9.77 µM

Nc1nc(N)c(-c2ccc(Cl)c(Cl)c2)c(C[P+](c2ccccc2)(c2ccccc2)c2ccccc2)n1
EC50: > 200 µM
IC50: 1.05 µM

C=C(C)[C@@H]1CC[C@]2(CO)CC[C@]3(C)[C@H](CC[C@@H]4[C@@]5(C)CC[C@H](O)C(C)(C)[C@@H]5CC[C@]43C)[C@@H]12
EC50: 41.7 µM
IC50: 69.2 µM

CC/C(=N/OC(=O)N(C)C)c1ccccc1
EC50: > 200 µM
IC50: > 200 µM

Cc1nc2cc(Cl)cc(N)c2nc1C
EC50: > 631 µM
IC50: 295 µM

C=CC(C1=CC(=O)C(OC)=CC1=O)c1ccc(OC)cc1 (configuration not stated)
outcome: inactive

CCOC(=O)C1(Cc2ccccc2)Cc2ccccc2C1=O (configuration not stated)
EC50: > 200 µM
IC50: 37.2 µM

O=Nc1ccc(Cl)cc1C(=O)c1ccccc1
EC50: > 200 µM
IC50: 32.4 µM

Cn1nc(NC(=O)c2cc(NC(=O)Nc3cc(C(=O)Nc4cc(C(=O)Nc5ccc6cc(S(=O)(=O)O)cc(S(=O)(=O)O)c6c5)n(C)n4)n(C)n3)nn2C)cc1C(=O)Nc1ccc2cc(S(=O)(=O)O)cc(S(=O)(=O)O)c2c1
EC50: 5.13 µM
IC50: > 100 µM

CC(=O)OC1C2CCC1C1C2C2(Cl)C(Cl)=C(Cl)C1(Cl)C2(Cl)Cl (configuration not stated)
outcome: inactive

COC(=O)C12CCCN1CCC2
EC50: 26.3 µM
IC50: > 200 µM

CCOC(=O)/C(=C/c1ccc[nH]1)P(=O)(OCC)OCC
EC50: > 437 µM
IC50: > 437 µM

N#CC(Nc1cccc(C(F)(F)F)c1)c1ccccc1C(F)(F)F (configuration not stated)
EC50: > 39.8 µM
IC50: > 39.8 µM

CC(=O)O[C@@H]1CC[C@]2(C)C3CC[C@]4(C)C(C(C)CCc5nc6ccccc6[nH]5)CCC4C3CC[C@@H]2C1 (some centres not stated)
EC50: > 50.1 µM
IC50: 15.5 µM

O=C(OCCN1CCCCC1)c1cc2ccccc2n1-c1ccccc1
EC50: > 200 µM
IC50: 97.7 µM

CCCCC1SC2=NCCN2C1(O)c1ccc(Cl)cc1 (configuration not stated)
EC50: > 200 µM
IC50: 102 µM

CC(=O)C(=[N+]=[N-])C(=O)NCC#N
EC50: > 200 µM
IC50: > 200 µM

CN(C)/C=N/n1c2ccccc2c2ccccc21
EC50: > 200 µM
IC50: 110 µM

CC(NC(=O)OCc1ccccc1)NC(=O)OC(C)(C)C (configuration not stated)
EC50: > 200 µM
IC50: 102 µM

NCC1OC(OC2C(CO)OC(OC3C(O)C(N)CC(N)C3OC3OC(CN)C(O)C(O)C3N)C2O)C(N)C(O)C1O (configuration not stated)
outcome: inactive

CC/C=C\C/C=C\C/C=C\CCCCCCCC(=O)NC(CCC(N)=O)C(=O)O (configuration not stated)
EC50: > 200 µM
IC50: 43.7 µM

CNc1ccc(/C=C2\C=Cc3ccccc32)cc1
EC50: > 200 µM
IC50: > 200 µM

CC1(C)CC(=O)c2c(nc3c(ccc4ccccc43)c2-c2ccc(NC(=O)CCCCC(=O)Nc3ccc(-c4c5c(nc6c4ccc4ccccc46)CC(C)(C)CC5=O)cc3)cc2)C1
EC50: > 100 µM
IC50: 20 µM

COc1cc2cc(C(=O)N3CC(CCl)c4ccc(NO)cc43)[nH]c2c(OC)c1OC (configuration not stated)
EC50: > 2 µM
IC50: 1.82 µM

CCCCCCCCCCCc1noc2c1C(=O)C(O)CC2 (configuration not stated)
outcome: inactive

C=C[C@]1(C)CC(O)C2C(=C)C(=O)OC2[C@H]1C(=C)C=O (some centres not stated)
EC50: > 200 µM
IC50: 3.31 µM

O=C(O)c1ccc2c(c1C(=O)O)C(=O)c1ccccc1C2=O
EC50: > 200 µM
IC50: > 200 µM

COc1ccc(NC(=O)/N=C2\CN(C(=O)c3c(F)cccc3F)C(=O)N2c2ccc(OC)cc2)cc1
EC50: > 200 µM
IC50: 129 µM

CC(C)(C)C1CC[C@H](O)[C@H]([C@H](O)CC2CC(=O)N(c3ccccc3)C(=O)C2)C1 (some centres not stated)
EC50: > 200 µM
IC50: > 200 µM

NNC(=O)N/N=C1/C(=O)N(c2ccc(Cl)c(Cl)c2)C(=O)C(=O)C1c1nc2ccccc2o1 (configuration not stated)
outcome: inactive

O=C(NC/C=C/Br)Nc1cnc2ccccc2c1
EC50: > 200 µM
IC50: 151 µM

CCOC1C(CC/C=C\c2ccccc2)CCCCN1C(=O)OC(C)(C)C (configuration not stated)
EC50: > 251 µM
IC50: > 251 µM

O=C1CN(c2ccc(Cl)cc2)C(=O)CN1NCNN1CC(=O)N(c2ccc(Cl)cc2)CC1=O
EC50: > 200 µM
IC50: > 200 µM

O=C1C(c2ccc(Cl)cc2)=[N+]([O-])c2ccccc21
outcome: inactive

COc1cc2c(c3c1[C@H](O)[C@H](C)[C@@H](C)O3)C=CC(C)(C)O2
EC50: > 200 µM
IC50: 81.3 µM

N[C@@H]1c2c(Br)sc(N3CCOCC3)c2C(=O)[C@@H]1O
EC50: > 200 µM
IC50: 105 µM

COc1ccc(C2CC(=O)Oc3ccccc3O2)cc1 (configuration not stated)
EC50: 102 µM
IC50: 151 µM

CC1=NS(=O)(=O)NC(C)=C1CC1=C(C)NS(=O)(=O)N=C1C
EC50: > 269 µM
IC50: > 269 µM

CCOP(=O)(OCC)/C(C#N)=C/c1ccc(Oc2ccccc2)cc1
EC50: > 20.4 µM
IC50: > 20.4 µM

COc1cc(/C=C2\NC(=O)N(/C=C3\C(=O)Oc4ccccc4C3=O)C2=O)ccc1O
EC50: > 200 µM
IC50: > 200 µM

Cc1cn(COCCCO)c(=O)[nH]c1=O
EC50: > 200 µM
IC50: > 200 µM

CC(=O)O[C@@H]1[C@H](OC(=O)CC(C)C)c2c(ccc3ccc(=O)oc23)OC1(C)C
EC50: 13.5 µM
IC50: 53.7 µM

COc1ccc2nc3cc(Cl)ccc3c(Sc3ccc(N)cc3)c2c1
EC50: > 14.1 µM
IC50: 3.31 µM

Cc1ccc(S(=O)(=O)Nc2cccc(C)c2C)cc1
outcome: inactive

N/N=C(N)/C(N)=N/N
outcome: inactive

CCCCCNP1(NCCCCC)=NP(NCCCCC)(NCCCCC)=NP(NCCCCC)(NCCCCC)=NP(NCCCCC)(NCCCCC)=N1
EC50: > 50.1 µM
IC50: > 50.1 µM

C/C=C(\C)C(=O)N1c2ccccc2CC1c1c(C)[nH]c2ccccc12 (configuration not stated)
EC50: > 21.9 µM
IC50: 6.92 µM

COc1ccc(/C=C(\Cl)c2ccc(OC)cc2)cc1
EC50: > 200 µM
IC50: > 200 µM

S=c1n(-c2ccc(Cl)cc2)c2nc3ccccc3nc(/c2=N\Nc2cc(Cl)ccc2Cl)n1-c1ccc(Br)cc1
EC50: > 75.9 µM
IC50: 19.5 µM

CC(=O)OCc1cn(S(=O)(=O)c2ccc(C)cc2)cn1
EC50: > 200 µM
IC50: 24 µM

Cc1cc2c(=O)cc(-c3ccc(Cl)cc3)oc2c(C(=O)O)c1C
outcome: inactive

CCOc1ccccc1NC(=O)CCc1nc(=S)[nH][nH]1
EC50: > 851 µM
IC50: 316 µM

CN(C)CC1CCCCCCCCCCC1=O (configuration not stated)
EC50: > 200 µM
IC50: 117 µM and 93.3 µM

[N-]=[N+]=Nc1ccc(SSCCC(=O)ON2C(=O)CCC2=O)cc1
EC50: > 200 µM
IC50: 7.59 µM

COc1ccc(-c2c(C3=NCCCN3)nnn2-c2ccc([N+](=O)[O-])cc2)cc1
EC50: > 13.8 µM
IC50: > 13.8 µM

C[n+]1c2ccccc2c(NCC(=O)O)c2ccccc21
outcome: inactive

CCCCCCCCCC=C(c1cc(Br)cc(C(=O)O)c1O)c1cc(Br)cc(C(=O)O)c1O
EC50: > 22.9 µM
IC50: > 22.9 µM

O=C(CCC(=O)Nc1ccc(Cl)c(Cl)c1)Cc1nc2ccccc2o1
EC50: > 182 µM
IC50: > 182 µM

C1C2CC3CC1CC(Nc1nc(NC45CC6CC(CC(C6)C4)C5)nc(NC45CC6CC(CC(C6)C4)C5)n1)(C2)C3
EC50: > 200 µM
IC50: 41.7 µM

CC(=Nc1cccc(Cl)c1)c1ccncc1
outcome: inactive

O=c1[nH]n(-c2ccccc2)c(=O)cc1Cl
EC50: > 85.1 µM
IC50: > 85.1 µM

CCOC(=O)C1=C(C)CC2C(=O)OC(=O)C2C1(C)C (configuration not stated)
outcome: inactive

COc1ccc2nc(-c3cccs3)cc(C(O)CN3CCSCC3)c2c1 (configuration not stated)
outcome: inactive

FC(F)(Oc1ccc2oc3ccccc3c2c1)c1nc2ccccc2o1
EC50: > 200 µM
IC50: 33.9 µM

S=C1Nc2ccccc2SC1c1ccccc1 (configuration not stated)
EC50: > 200 µM
IC50: 31.6 µM

O=C/C1=C/C2=Cc3ccccc3C=C(/C=C(/C=O)C1)C2
EC50: > 100 µM
IC50: 43.7 µM

CN1C(=O)C2C(=O)N(Cc3ccccc3)CC(=O)N2c2cccnc21 (configuration not stated)
EC50: > 200 µM
IC50: > 200 µM

CC(C)[Si](OC1=CCC[C@H]2NC(=O)[C@@H](Cc3ccc([N+](=O)[O-])cc3)[C@@]12C)(C(C)C)C(C)C
EC50: > 200 µM
IC50: 20.4 µM

CC(C)CCC[C@@H](C)[C@H]1CC[C@H]2[C@@H]3CC[C@H]4CC5(C[C@]4(C)[C@H]3CC[C@]12C)Nc1ccccc1S5 (some centres not stated)
EC50: > 20 µM
IC50: > 20 µM

O=C(Cc1nc2ccccc2s1)Nc1cccc(C(F)(F)F)c1
EC50: > 21.4 µM
IC50: 17.4 µM

Nc1ccc(Cl)c(-c2nc3ccccc3[nH]2)c1
EC50: > 77.6 µM
IC50: > 77.6 µM

NC(N)=NS(=O)(=O)c1ccc(NC(=O)c2cccc3c(NNc4ccc(S(N)(=O)=O)cc4)c4ccccc4nc23)cc1
EC50: > 200 µM
IC50: 28.2 µM

C=CCNC(=S)N/C=C(\C#N)c1nc2ccccc2s1
EC50: > 200 µM
IC50: > 200 µM

N[C@H](C(=O)O)[C@@H](Cl)CC(=O)O
outcome: inactive

CCCCCCCCCCCCCCCCOCC(CN(C)CCN(C)C)OCCCCCCCCCCCCCCCC (configuration not stated)
outcome: inactive

CC/C=C\C/C=C\C/C=C\C/C=C\CCC(=O)OC(COC(=O)CCCCCCC/C=C\C/C=C\C/C=C\CC)COC1OC(CO)C(O)C(O)C1O (configuration not stated)
EC50: > 38 µM
IC50: > 38 µM

c1ccc(C2=Nc3ccccc3N=C(c3ccccc3)C2)cc1
EC50: > 17.8 µM
IC50: > 17.8 µM

O=C(CSCc1cc(S(=O)(=O)O)c2cccnc2c1O)Nc1ccc(/C=C/c2ccc(NC(=O)CSCc3cc(S(=O)(=O)O)c4cccnc4c3O)cc2S(=O)(=O)O)c(S(=O)(=O)O)c1
EC50: > 200 µM
IC50: > 200 µM

COC(=O)N1CC2CCCC(C2)c2ccccc21 (configuration not stated)
EC50: > 204 µM
IC50: 186 µM

Cc1cc(N)c2ccccc2[n+]1CCCCCCCCCC[n+]1c(C)cc(N)c2ccccc21
EC50: > 24.5 µM
IC50: 0.155 µM

O=C1OC(c2ccccc2)=N/C1=C\c1cccc2ccccc12
EC50: > 120 µM
IC50: > 120 µM

FC(F)(F)c1cccc(COCCN2CCN(Cc3cccc(C(F)(F)F)c3)CC2)c1
EC50: > 200 µM
IC50: 18.2 µM
